Assay results reported in patent US20200352918A1, “COMPOUNDS AND METHODS FOR TREATING OR PREVENTING FIBROSIS” (priority 2019, published 2020).
“Also recorded” adds a separate entry of the source.

Assays:
Format in all cases: cell-based, human
[1] = test system: iFA phenotype of mesenchymal-like cells on 13 kPa hydrogels; assay: iFA-prevention phenotypic high-content drug screen (iFA model)
Experimental: Mesenchymal-like cells were cultured on 13 kPa functionalized polyacrylamide gels that were prepared as follows. 187.5 μl of 40% acrylamide, 60 μl of 2% bis-acrylamide and 8.55 μl of sodium bisulfate in a final volume of 990 μl of water was incubated for 20 min at room temperature to degas the mixture. To this mixture, 0.10% ammonium persulfate and 0.15% TEMED were added, mixed and 100 μl of the solution was added onto a 0.4% 3-(Trimethoxysily) propyl methacrylate pH 3.5 treated coverslip. A 2% dimethyl dichlorosilane in chloroform treated round glass coverslip was then inverted on the acrylamide solution and allowed to polymerize for 15 min between the two surfaces. The top coverslip was gently removed, and the bottom coverslips with the hydrogel were transferred to appropriate multi-well low adherent tissue culture plate containing coupling buffer (0.1 M sodium phosphate dibasic, 0.1 M sodium phosphate monobasic) pH 8. To functionalize the hydrogel, 1 part of 0.1 M p-benzoquinone in dioxane was added to the hydrogels containing 4 parts of coupling buffer and incubated at 37° C. for 30 min. The gel was then successively washed with 20% dioxane in water, water, 0.1 M sodium acetate buffer at pH 4.0 containing 1.0 M sodium chloride, 0.1 M sodium bicarbonate solution at pH 8.5 containing 1.0 M sodium chloride, and finally with coupling buffer at pH 7.5. The hydrogels were then coated with 0.1% gelatin for 2 hrs prior to seeding the cells. Cells were seeded at a density of 3000 cells/cm^2.
A phenotypic high-content drug screen was prepared to identify compounds capable of preventing the iFA phenotype in a 96-well format. An ImageXpress XL high-throughput imager with a 4× Plan objective (N/A 0.20) was used with image based focusing. Briefly, 100 μL media were plated in each well of 96 well plate using a Thermo Multidrop non-contact dispenser. Using a custom V&P pin tool mounted to a Beckman FX liquid handler, 1.5 μL compounds or DMSO were added. Mesenchymal-like cells were added as a suspension using the Multidrop at a density of 3.5×10^3 cells/well. The resulting compound concentration was 10 μM. Cells were imaged after 7 days of incubation at 37° C. and 5% CO2: A final of 0.5 μg/ml of Calcein AM and/or 10 μg/ml propidium iodide (viability dye) with 1 μg/ml Hoechst 33342 were added and imaged using the ImageXpress XL system. Data mining was performed using a custom module consisting of the following steps: The image background was removed using a top-hat filter with 25 μm round shape polisher. Next, cellular aggregates and individual spindle-shaped cells were identified. Aggregates of cells were defined by size with a cut-off of 60 to 200 micron and an intensity of at least 200 gray scales over background. Individual spindle-shaped cells were identified as smaller objects with cut-offs from 15 to 100 micron and a lower intensity of at least 70 gray scales over background.
Additional morphometric measurements were made by counting labeled cell nuclei and measuring total area covered with cells per well. The data resulting from the screen were batch exported through MetaXpress and uploaded into a Collaborative Drug Discovery (CDD) cloud based database (Ekins and Bunin, 2013, Methods in molecular biology 993, 139-154.). Hits were selected on a cut-off of more than 3 standard deviations from mean using data normalized to reference wells in each plate. IC50 values (the half maximal inhibitory concentration) from confirmation experiments were calculated from dose-response signal curves using the Prism software (GraphPad Software).
Signal-to-background (S/B) ratio, standard variation and variation coefficients were calculated as the signal of DMSO treated wells divided by the signal of the hit compound (AA5) treated wells. […]

iFA model = assay: Proliferation by EdU labeling in the iFA model; details: AA5-prevention vs DMSO, 6 h EdU
Experimental: Cells were incubated with 10 μM EdU (Invitrogen) at specified time points of culture for 6 hrs, fixed with 4% PFA, and detected by staining with Alexa594-azide according to the manufacturer's instructions. The cells were additionally counterstained with Vimentin and/or α-SMA and DAPI.

[2] = test system: iFA phenotype of mesenchymal-like cells on 13 kPa hydrogels; assay: iFA resolution screen (reversal of fibrosis) in the iFA model
Experimental: Signal-to-background (S/B) ratio, standard variation and variation coefficients were calculated as the signal of DMSO treated wells divided by the signal of the hit compound (AA5) treated wells. Z′ values were used to measure assay quality which was calculated by the formula of Z′=1−3(SDTotal+SDBackground)/(MeanTotal−MeanBackground)(Inglese et al., 2006) where SDTotal and MeanTotal are the standard deviation and mean of signal for DMSO treated wells, and SDBackground and MeanBackground are the standard deviation and mean of signal for AA5 treated wells. Data normalization and curve fitting were performed as previously reported (Kariv et al., 1999, J Biomol Screen 4, 27-32.). Z′ values were obtained for the number of cellular aggregates and also calculated a phenotypic cell index as the product of cell number x area/Log(number of iFA aggregates+5). Secondary screening using α-SMA and collagen deposition was employed to further ensure efficacy and resolution of the iFA phenotype of the compounds. For the resolution screen, cells were seeded in a 96-well plate as mentioned above and compounds were added at day 13 to analyze their capacity to resolve the iFA phenotype using the same readouts as above. Dose response experiments were carried out as in the secondary screen but with at least 12 steps of a 1:1 dilution resulting in final compound concentrations from 500 μM to high nanomolar ranges.
The primary assay involved plating together the iPSCs and Table 1 compounds sourced from the library on day 1 on the hydrogel and examining the phenotype on day 7 of the culture as described herein. The secondary screen repeated the assay using compound sourced commercially or from additional library materials. The dose response refers to a 20 point dose course that ranges from picomolar to millimolar concentrations. […] As described herein, the cellular phenotype parameters evaluated included size, fluorescence intensity of the iFA phenotype, the shape factor of the cells/aggregates, and the cells' viability in the presence of viability dyes (Calcein AM).

IC50 ([1]; Homo sapiens, FIG. 16B, read-out: IC50 (dose response, iFA phenotype)): 900 nM
Compound: Cc1c(C(=O)Nc2nc3ccccc3s2)sc2nc3cc4c(cc3cc12)OCO4 [AA5]
Prevention of the iFA phenotype ([1]; 0.6 μM-10 μM AA5, Calcein AM / Hoechst 33342 (FIG. 17A)): Full prevention of phenotype was seen at low micromolar concentrations | Dose response ([1]; 20 point dose course, picomolar to millimolar): +++ (+++ = strong effect) | Efficacy in secondary screen ([1]; assay repeated with compound sourced commercially or from additional library materials): +++ (+++ = strong effect) | Efficacy in primary screen ([1]; library compound plated with cells on day 1 on hydrogel, phenotype on day 7, 10 μM): +++ (+++ = strong effect) | Proliferation (EdU) (iFA model): no effect on proliferation; also recorded: did not display any significant difference in the proliferation rate | Levels of Collagen I and α-SMA (resolution of iFA phenotype) ([2]; AA5-resolution): reduction | Reversal of fibrosis ([2]; phenotype formed over 10 days, then compounds added): Yes
